Entries after “also recorded” stand apart in the source; their conditions may differ.
How the values were obtained:
[1] = Enzymatic kinetics in vitro, rat kidney S9; format: in vitro ADME; conditions: 37 °C, 5–200 μM Cbz-dFdC
Description: (§1) The SD rats without any treatment were sacrificed after adapting to the environment. Blank blood, the liver, the kidney, and the intestine were collected and treated as described in Section 4.4. Part of the homogenate was removed for centrifugation for 20 min at 9000× g at 4 °C, and the supernatant was obtained as tissue S9. The tissue homogenate and S9 were diluted to […] after the protein concentration was determined by the BCA kit (Abcam, Cambridge, MA, USA). Each matrix consisted of 45 uL of the matrix mixed with 5 uL of the drug dissolved in normal saline solution for about 3 min, followed by incubation at 37 °C in a water bath. Then, acetonitrile containing the internal standard was added to terminate the reaction. Human tissue S9 and human CES1 recombinase purchased from the Ruid Liver Disease Research Co., Ltd. (Shanghai, China) were incubated under the same conditions. An enzyme kinetic study was obtained from the matrix following incubation at 37 °C for 30 min with 5, 10, 20, 50, 100, or 200 μM of Cbz-dFdC. We estimated the parameters and simulated curves according to the Eadie–Hofstee method.

[2] = Enzymatic kinetics in vitro, rat liver S9; format: in vitro ADME; conditions: 37 °C, 5–200 μM Cbz-dFdC
Description: as §1

[3] = Tissue distribution (liver, kidney, intestine); format: in vivo, SD rats; conditions: rats
Description: In order to investigate the drug distribution in different tissues and the relationship between CES1 activity and tissue concentration, we conducted tissue distribution experiments. The SD rats were divided into six groups (n = 6 for each group). After a single intragastric administration of Cbz-dFdC (22 mg/kg) and a single injected administration of dFdC (15 mg/kg), the SD rats were sacrificed at 0.5 h, 1.5 h, and 4 h, and the liver, kidney, and intestine were collected. The liver was perfused with ice-cold normal saline and then removed, followed by ice-cold normal saline cleaning. The kidney and intestine were directly removed and then washed with ice-cold normal saline. All of the above operations were carried out on ice, and the removed tissue was stored in an ice bath. The liver, kidney, and intestine were cut and crushed, homogenized with an appropriate amount of phosphate buffer by a homogenizer, and then diluted 5 times with ice-cold PBS buffer (in an ice bath). The tissue homogenates were determined with a BCA kit for protein concentration, a CES1 kit for CES1 activity, and UFLC–MS/MS for drug tissue concentration after pretreatment; the pretreatment method was reported previously.

human HepG2 cell line = assay: CCK-8 tumor cell growth inhibition assay; format: cell-based; conditions: HepG2, CCK-8, concentration-dependent
Description: The cells were cultured on a 96-well plate for 4 h for each well. Then, dimethyl sulfoxide solution containing 0.1–100 mM of Cbz-dFdC and dFdC was diluted 1000 times with the medium before administration. A total of 200 uL of medium containing Cbz-dFdC and dFdC was added per well (n = 6). The medium with drugs was discarded, and 10% CCK-8 solution was added. Then, the absorbance value was read at a wavelength of 450 nm after incubation at 37 °C, for 30 min. The drug concentration of Cbz-dFdC and dFdC in cell were determined by a previously established method.

CES1 = biological target: T1, CES1 (Homo sapiens, UniProt P23141); assay: Enzymatic kinetics in vitro, human CES1 recombinase; format: in vitro ADME; conditions: recombinant human CES1, 37 °C, 30 min, 5–200 μM Cbz-dFdC, read-out: Clint, disappearance of Cbz-dFdC
T1 construct: purchased Ruid Liver Disease Research Co., Ltd. (Shanghai, China)
T1 sequence (P23141 18-567): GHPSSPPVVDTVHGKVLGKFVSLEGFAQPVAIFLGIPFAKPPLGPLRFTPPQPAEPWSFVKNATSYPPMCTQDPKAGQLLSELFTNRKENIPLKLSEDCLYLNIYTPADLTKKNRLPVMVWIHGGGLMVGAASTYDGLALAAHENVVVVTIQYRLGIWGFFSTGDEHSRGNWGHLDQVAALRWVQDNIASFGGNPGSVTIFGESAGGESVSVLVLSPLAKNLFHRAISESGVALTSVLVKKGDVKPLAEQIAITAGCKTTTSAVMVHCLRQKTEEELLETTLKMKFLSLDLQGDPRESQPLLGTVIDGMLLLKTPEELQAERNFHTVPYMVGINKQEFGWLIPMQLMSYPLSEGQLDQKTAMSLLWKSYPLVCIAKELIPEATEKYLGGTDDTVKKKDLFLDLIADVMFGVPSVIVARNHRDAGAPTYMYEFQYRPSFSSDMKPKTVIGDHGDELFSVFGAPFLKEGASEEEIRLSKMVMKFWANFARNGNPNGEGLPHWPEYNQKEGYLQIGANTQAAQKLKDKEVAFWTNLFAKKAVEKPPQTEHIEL
Description: as §1

[4] = Enzymatic kinetics in vitro, human liver S9; format: in vitro ADME
Description: as §1

[5] = Plasma pharmacokinetics in vivo; conditions: SD, rat, po; plasma analyte after i.g. Cbz-dFdC 22 mg/kg, rats
Description: SD rats (n = 6) were intragastrically administered Cbz-dFdC (22 mg/kg) and intravenously injected with dFdC (15 mg/kg), and 150 μL blood samples were collected from the retro-orbital route in the right eye at 0, 5, 10, 20, and 30 min and at 1, 2, 4, 6, 12, 24, and 48 h, using heparinized tubes. Without delay, the blood was directly centrifuged at 8000× g at 4 °C for 5 min. Then, the supernatant plasma was collected and immediately extracted using a previously established method or was frozen at −80 °C until further analysis.

[6] = SD, read-out: Km, disappearance of Cbz-dFdC
[7] = SD, 30 min, read-out: Clint, disappearance of Cbz-dFdC
[8] = Human Liver S9, 37 °C, 30 min, 5–200 μM Cbz-dFdC

- Km at 30 min [1, 6]: 269 µM
- microsomal CLint [1, 7]: 770 µL/min/mg
- Km at 30 min [2, 6]: 96.3 µM
- microsomal CLint [2, 7]: 1760 µL/min/mg
- tissue penetration ([3]; drug concentration in tissue lower than plasma concentration): weak tissue penetration
- microsomal CLint (CES1): 72700 µL/min/mg
- microsomal CLint ([4]; Human Liver S9, 37 °C, 30 min, 5–200 μM Cbz-dFdC, read-out: Clint, disappearance of Cbz-dFdC): 13800 µL/min/mg
- Km at 30 min ([4]; Human Liver S9, 37 °C, 30 min, 5–200 μM Cbz-dFdC, read-out: Km, disappearance of Cbz-dFdC): 108 µM
- stability in human liver S9 ([4]; human liver S9, easily hydrolyzed into dFdC): unstable
- AUC(0-inf) [5]: 2690 ± 457 ng·h/mL
- Cmax [5]: 451 ± 107 ng/mL
- Tmax [5]: 2 h
- half-life [5]: 9.91 ± 1.87 h
SMILES: O=C(Nc1ccn([C@@H]2O[C@H](CO)[C@@H](O)C2(F)F)c(=O)n1)OCc1ccccc1 [Cbz-dFdC, 4-N-carbobenzoxy-gemcitabine]
- Vmax, appearance of dFdC ([1]; 30 min): 50.2 nmol/min/mg pro
- Vmax, disappearance of Cbz-dFdC ([1]; 30 min): 206.5 nmol/min/mg pro
- Vmax, appearance of dFdC ([2]; 30 min): 49.5 nmol/min/mg pro
- Vmax, disappearance of Cbz-dFdC ([2]; 30 min): 169.6 nmol/min/mg pro
- Cbz-dFdC level in the intestine versus other tissues ([3]; after i.g. Cbz-dFdC 22 mg/kg, liver, kidney, intestine, especially at 0.5 h): significantly higher than that in the other tissues; also recorded: mainly distributed in the intestine
- cytotoxicity / tumor cell growth inhibition (human HepG2 cell line): certain cytotoxicity; also recorded: lower than that of an equimolar dose of dFdC
- Vmax, appearance of dFdC [4, 8]: 480.6 nmol/min/mg pro
- Vmax, disappearance of Cbz-dFdC [4, 8]: 1491.3 nmol/min/mg pro
